Measured values: US7358278B2, “Cellular phosphorylation potential enhancing compositions preparation and use thereof” (priority 1994, dated 2008)
Marks after values point to notes of the source that are not given here.

What was measured:
rat cortical neurons = assay: Glutamate-induced delayed toxicity, neuroprotection, MTT assay; conditions: FIG. 5b
Method: Cell death (glutamate toxicity) was measured using the MTT assay.
The glutamate exposure involved treatment wit 100 micromoolar glutamate for 30 min followed by its removal. […] All data are means +1-SEM from at least three different experiments.
To study glutamate neurotoxicity, we utilized primary cultures of rat cortical neurons and used a glutamate pulse model which produces delayed neuronal death in 24 hrs. All studies were performed in Locke's medium prepared in our laboratory to avoid contribution from the vitamins and additives typically found in many commercial media.
To determine whether the protective effects of pyruvate against glutamate toxicity were due to its effect on cell metabolism, we utilized 4-hydroxycinnamate, a compound that blocks the transporter by which pyruvate enters mitochondria. While pyruvate can exert its antioxidant effects in any compartment, its utilization in energy metabolism requires its entry into mitochondria.

[1] = tested on: rat cerebral cortical astrocytes; type: cell-based; conditions: FIG. 11
Method: Astrocytes were treated with increasing amounts of the ER calcium pump inhibitor thapsigargin for 24 hrs in either Krebs buffer or MEM. Cell viability was determined using the MTT assay.
FIG. 10. Exogenous pyruvate provides protection to astrocytes from calcium overload in Krebs Buffer.
For these experiments astrocytes were cultured in either MEM or in Krebs alone or in Krebs with different aminoacid additions grouped as in FIG. 8. Aminoacids were used at 1 mM each. Following 30 min incubation with aminoacids, 15 μM thapsigargin was added to the cultures and the astrocytes cultured for another 24 hours in the presence or absence of 10 mM cinnamate, at which point cell viability was determined using the MTT assay. Cell viability is expressed as percent of that seen with MEM without thapsigargin addition. At the 15 μM thapsigargin dose, about 80% viability is seen in MEM and this is reduced to 20% by the addition of pyruvate. […]
The combination of pyruvate, nicotinamide, and creatine has synergistic benefits for cellular energy metabolism and is also cytoprotective. […] Since we had shown that pyruvate protects neurons from calcium overload induced by thapsigargin toxicity, we first determined whether endogenously produced or exogenously supplied pyruvate could protect astrocytes from calcium overload induced by thapsigargin as shown previously for GT1-7 neurons. […]

GT1-7 neurons [2] = assay: Cellular ATP and phosphocreatine levels, chemiluminescent firefly luciferase assay; type: cell-based, rat; conditions: 1 mM each, 1 hour incubation; for ATP (% control) / CP (% control): Locke's media; for CP (% control): phosphocreatine
Method: (§1) While each of these agents may have additional neuroprotective properties outside of their role in energy metabolism, our major premise is that this combination will provide neuroprotection through enhancement of brain energy levels. To assess this we monitored three different bioenergetic parameters: Whole cell NADH levels, cellular ATP levels and cellular phosphocreatine levels. GT1-7 cells or cross-chopped rat cerebral cortical slices were equilibrated in oxygenated Locke's media for 1 hour. Pyruvate, nicotinamide, or creatine were than added alone or in combination at 1 mM each. Analytes were measured after another hour of incubation. NADH was measured using its specific fluorescence properties in suspended cells and the effect of each nutrient alone and in combination on GT1-7 neuronal NADH levels is shown in table 2a. Pyruvate would be expected to raise mitochondrial NADH levels through its participation in the Krebs cycle and it indeed appears to account for all of this effect in the combination. ATP and phosphocreatine were measured via a chemiluminescent assay utilizing firefly luciferase. In viable cells, phosphocretine levels most adequately reflect cellular energy supply since cells readily convert any excess ATP into phosphocreatine.

GT1-7 neurons [3] = assay: Whole cell NADH levels by NADH fluorescence in suspended cells; type: cell-based, rat; conditions: 1 mM each, 1 hour incubation, Locke's media; * significant vs Locke's medium alone P<0.05
Method: as §1

GT1-7 cells = assay: Thapsigargin (calcium overload) toxicity, neuroprotection, MTT dye reduction assay; conditions: 20 micromolar thapsigargin, FIG. 4B
Method: GT1-7 cell were subjected to treatments and assessed for nutrient neuroprotection as described in the text. All data are means +/− SEM from at least three different experiments.
To study calcium overload toxicity, we treated cells with thapsigargin, an agent that blocks the endoplastic reticulum calcium pump and markedly elevates cytoplasmic calcium levels. […] All studies were performed in Locke's medium prepared in our laboratory to avoid contribution from the vitamins and additives typically found in many commercial media. After determining the toxin treatment dose needed to produce complete toxicity, we then treated the cells dose-dependently with pyruvate, nicotinamide (nicotinamide) and creatine, either alone or in combination along with the LD95 dose of the toxins. […] For the combination experiments, all three agents are added together and the x-axis indicates the concentration of each agent in the combination.

[4] = tested on: rat cerebral cortical slices; assay: ATP and phosphocreatine levels in cross-chopped cerebral cortical slices, firefly luciferase assay; type: cell-based; conditions: 1 mM each
Method: as §1, with “Analytes were measured after another hour of incubation.” left out, “phosphocreatine. […] The response with the combination was larger and was maintained after 6 hours of continued incubation.” for “phosphocreatine.”

| SMILES | effect on glutamate toxicity alone (in words) (rat cortical neurons) | effect on the protection by pyruvate (in words) (rat cortical neurons) | effect of cinnamate on susceptibility of MEM cultured astrocytes to thapsigargin (in words) [1] | CP/ATP Ratio (GT1-7 neurons [2]) | ATP (% control) (GT1-7 neurons [2]) | CP (% control) (GT1-7 neurons [2]) | NADH fluorescence (GT1-7 neurons [3]) | protection against calcium overload (in words) (GT1-7 cells) | ATP % ctr ([4]; 1 h) [% ctr] | CP % ctr ([4]; 1 h) [% ctr] | CP/ATP Ratio ([4]; 1 h) | ATP % ctr ([4]; 6 h) [% ctr] | CP % ctr ([4]; 6 h) [% ctr] | CP/ATP Ratio ([4]; 6 h) |
| --- | --- | --- | --- | --- | --- | --- | --- | --- | --- | --- | --- | --- | --- | --- |
| O=C(O)C=Cc1ccc(O)cc1 [4-hydroxycinnamate] | no significant effect on glutamate toxicity alone | prevents the protective effects of pyruvate | more susceptible to thapsigargin toxicity | – | – | – | – | – | – | – | – | – | – | – |
| CN(CC(=O)O)C(=N)N [Creatine, creatine] | – | – | – | 115.2 | 42 + 14.2* % control | 3314.3 + 920* % control | 99.3 ± 2.3 | nearly complete dose dependent protection | – | – | – | – | – | – |
| CC(=O)C(=O)O [Pyruvate, pyruvate] | – | – | – | 6 | 103.5 ± 17.7 % control | 551.7 ± 193.7 % control | 134.64 ± 9.9* | – | 77.7 | 233.6 | 3.1 | 143.6 | 150.6 | 1 |
| NC(=O)c1cccnc1 [Nicotinamide, nicotinamide] | – | – | – | 4.3 | 48.6 ± 23.4 % control | 133.1 + 25 % control | 98.8 ± 2.2 | nearly complete dose dependent protection | – | – | – | – | – | – |
